Measurements: patent US20150191446A1, “SELENO-COMPOUNDS AND THERAPEUTIC USES THEREOF” (THE HEART RESEARCH INSTITUTE LTD, priority 2010, published 2015)

Legend:
[1] = tested on: wounds in wildtype C57/BL6 mice; assay: Circular incision wound model, topical treatment, wildtype mice; type: in vivo, mouse; conditions: for pus formation in wound / wound healing (appearance): topical; for wound healing (appearance): FIG. 25, 26
Experimental: In the experimental testing according to the present invention, pairs of circular incision wounds on the backs of wildtype C57/BL6 and db−/db− mice (n=12 each) were treated daily with a seleno-compound according to the current invention or vehicle, topically for 10 days. Wound closure, vascular perfusion and tissue histology were assessed.

[2] = ThioGlo assay, recycling of selenoxides by thiols: glutathione; conditions: GSH samples
Experimental: (§1) The purpose of these experiments was to determine whether thiols could reduce the selenoxides formed on oxidation of the seleno compounds. The ThioGlo assay was used to monitor the loss of thiol groups upon addition of selenoxides as this agent produces a fluorescent product in the presence of reduced thiols.
(§2) The ThioGlo reagent was prepared by diluting 30 μL of a stock solution (5 mg in 5.070 mL acetonitrile) in 2970 μL of 0.1 M pH 7.4 phosphate buffer. Preparation of the developing reagent was performed immediately prior to addition to standards or samples. Standard curves were prepared by addition of varying volumes, between 0 and 50 μL, of 10 μM GSH solution to wells in a 96-well plate. The volume in each well was made up to 50 μL with 0.1 M pH 7.4 phosphate buffer. 50 μL of ThioGlo•reagent was added to each standard, and incubated in the dark for 5 minutes. The fluorescence was measured using a PerSeptive Biosystems CytoFluor II fluorescence multi-well plate reader with λex=360 nm λem=530 nm. Standards using 10 μM Cys and 2 mg/mL BSA were produced in the same method.
(§3) Solutions of 8 μM SeMetO were produced by mixing 20 μM SeMet and 16 μM HOCl together, and incubating for 30 minutes. […] The fluorescence was measured using the PerSeptive Biosystems CytoFluor II fluorescence multi-well plate reader with λex=360 nm λem=530 nm. […]

[3] = ThioGlo assay, recycling of selenoxides by thiols: cysteine; conditions: Cys samples
Experimental: as §1, §2, §3

[4] = target: bovine serum albumin (Bos taurus, UniProt P02769); assay: ThioGlo assay, recycling of selenoxides by thiols: bovine serum albumin; conditions: thiol group on bovine serum albumin
Experimental: as §1, §2, §3

[5] = tested on: BSA; assay: 3-chlorotyrosine formation by HOCl in BSA (LCMS); type: biochemical, bovine; conditions: FIG. 5A
Experimental: (§4) Varying concentrations of Se-sugars (1.0 mM-0.05 mM) were added to solutions containing 0.1 mg·mL^−1 of protein (BSA or Plasma).
(§5) 150 μL of each sample (Se1HSA1—Control) were added to 50 μL of 3 mM HOCl. Samples, with a final volume of 200 μL, were placed in a glass vial (8×40 mm, 1 mL, No. 98212, Alltech) labeled by etching with a diamond tipped pen or engraver. Proteins (0.1 mg in 200 μL) were delipidated and precipitated by the addition of 25 μL 0.3% (w/v) deoxycholic acid and 50 μL of 50% (w/v) TCA, with incubation on ice for 5 min. The glass vials containing samples were placed in 1.5 mL centrifuge tubes for 2 minutes at 9000 rpm at 5° C. (Eppendorf 5415R centrifuge) to pellet protein. Protein pellets were washed once with 5% (w/v) TCA, and twice with ice cold acetone (stored in […]) with 2 min, 9000 rpm, spins between washes in each case to settle pellets. The samples were then transferred to PicoTag hydrolysis vessels before the addition of 150 μL of 6 M HCl and 50 μL of thioglycolic acid into the PicoTag vessel and placed under vacuum in the oven at 110° C. for 16-18 hours. The PicoTag vessels were removed from oven and allowed to cool before releasing vacuum. […]
(§6) L-Tyrosine, 3-chlorotyrosine and di-tyrosine were analysed by LC-MS in the positive ion mode with a Finigan LCQ Deca XP ion-trap instrument coupled to a Finigan surveyor HPLC system. […]

[6] = tested on: human plasma; assay: 3-chlorotyrosine formation by HOCl in human plasma (LCMS); type: biochemical; conditions: FIG. 5B
Experimental: as §4, §5, §6

bovine serum albumin, sequence (P02769 25-607): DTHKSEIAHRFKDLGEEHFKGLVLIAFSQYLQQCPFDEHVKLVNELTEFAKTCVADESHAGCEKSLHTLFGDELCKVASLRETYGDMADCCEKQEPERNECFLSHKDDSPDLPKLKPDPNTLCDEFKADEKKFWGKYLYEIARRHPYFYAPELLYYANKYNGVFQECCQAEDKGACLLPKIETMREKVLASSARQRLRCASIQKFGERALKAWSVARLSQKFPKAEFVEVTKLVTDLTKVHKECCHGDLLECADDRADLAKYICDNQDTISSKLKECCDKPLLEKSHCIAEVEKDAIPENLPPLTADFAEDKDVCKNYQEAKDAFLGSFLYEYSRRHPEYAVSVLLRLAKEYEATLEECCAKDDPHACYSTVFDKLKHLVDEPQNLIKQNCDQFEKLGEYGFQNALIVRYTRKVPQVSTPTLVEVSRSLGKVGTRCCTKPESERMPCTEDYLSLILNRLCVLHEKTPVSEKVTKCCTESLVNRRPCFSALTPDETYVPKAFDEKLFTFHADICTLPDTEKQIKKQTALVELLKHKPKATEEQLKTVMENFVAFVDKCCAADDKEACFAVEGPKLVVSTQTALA

Structure (SMILES)	wound healing (appearance) ([1]; same dose)	amount of thiols after selenoxide addition [2]	amount of thiols after selenoxide addition [3]	reduction of selenoxide by thiol group [4]	other results
O[C@@H]1C[Se]C[C@H]1O (racemic) [DHSred, DL-trans-3,4,-Dihydroxy-L-selenolane]	inferior healing				inflammatory response during wound healing ([1]; FIG. 25): resulted in an inflammatory response; pus formation in wound ([1]; same dose, FIG. 25): development of pus; wound healing (appearance) ([1]; same dose, listed as DL-trans-3,4,-Dihydroxy-L-selenolane): reduced wound healing; pus formation in wound ([1]; same dose, FIG. 25, listed as DL-trans-3,4,-Dihydroxy-L-selenolane): observable pus formation; scar tissue formed during wound healing ([1]; wildtype mice, same dose, FIG. 26): pronounced scar tissue build up
C[Se](=O)CC[C@H](N)C(=O)O (stereo partly drawn) [SeMetO, selenomethionine oxide]		dose dependent decreases	dose dependent decreases	less marked	
O=[Se]1C[C@@H](O)[C@@H](O)[C@@H]1[C@H](O)CO (stereo partly drawn) [SeTalO]		dose dependent decreases	dose dependent decreases	less marked	
OCC1[Se]CC(O)C(O)[C@@H]1O (stereo partly drawn) [compound 4, 1,5-Anhydro-5-seleno-L-gulitol]					3-chloro-tyrosine formation by HOCl [5]: effectively preventing; 3-chloro-tyrosine formation by HOCl [6]: effectively preventing
OC[C@@H](O)[C@@H]1[Se]C[C@@H](O)[C@H]1O [compound 38, 1,4.-Anhydro-4-seleno-D-talitol]	improved wound closure and healing				
